How the values were obtained:
[1] = Liquid
[2] = excess molar enthalpy (molar enthalpy of mixing); xn = mol fraction of the nth substance listed; settings: 298.15 K, 101.3 kPa, Liquid, Flow calorimetry

CCCCBr [1-bromobutane]
[1]
Settings	vapor or sublimation pressure [kPa]
278.15 K	1.86
283.15 K	2.48
288.15 K	3.265
293.15 K	4.261
298.15 K	5.506
303.15 K	7.039
308.15 K	8.899
313.15 K	11.15
318.15 K	13.87
323.15 K	17.09

CCCCBr [1-bromobutane] + CCC(C)O
[2]
Settings	excess molar enthalpy [kJ/mol]
x2 = 0.0424	0.52
x2 = 0.0948	0.924
x2 = 0.1942	1.28
x2 = 0.2951	1.47
x2 = 0.3482	1.52
x2 = 0.3973	1.54
x2 = 0.4492	1.53
x2 = 0.5006	1.51
x2 = 0.6015	1.4
x2 = 0.7035	1.19
x2 = 0.8062	0.887
x2 = 0.9066	0.489
x2 = 0.959	0.246

CCCCBr [1-bromobutane] + CC(C)CO
[2]
Settings	excess molar enthalpy [kJ/mol]
x2 = 0.0421	0.53
x2 = 0.0942	0.851
x2 = 0.1932	1.12
x2 = 0.2938	1.25
x2 = 0.3468	1.27
x2 = 0.3957	1.27
x2 = 0.4476	1.25
x2 = 0.499	1.21
x2 = 0.6	1.08
x2 = 0.7021	0.891
x2 = 0.8052	0.636
x2 = 0.906	0.33
x2 = 0.9587	0.159

CCC(C)O (stereo unspecified) [butan-2-ol]
[1]
Settings	vapor or sublimation pressure [kPa]
278.15 K	0.519
283.15 K	0.78
288.15 K	1.137
293.15 K	1.648
298.15 K	2.324
303.15 K	3.256
308.15 K	4.462
313.15 K	6.048
318.15 K	8.105
323.15 K	10.71

CC(C)CO [2-methyl-1-propanol]
[1]
Settings	vapor or sublimation pressure [kPa]
278.15 K	0.335
283.15 K	0.505
288.15 K	0.739
293.15 K	1.057
298.15 K	1.501
303.15 K	2.133
308.15 K	2.956
313.15 K	4.026
318.15 K	5.444
323.15 K	7.237
